Experimental data: the NIST ThermoML archive (doi:10.1016/j.jct.2019.02.031)

What was measured:
[1] = xn = mol fraction of the nth substance listed; settings: 101 kPa, Liquid, x2 = 0; for viscosity: Falling or rolling sphere viscometry; for mass density: Vibrating tube method
[2] = 101 kPa, Liquid; for viscosity: Falling or rolling sphere viscometry; for mass density: Vibrating tube method
[3] = molar heat capacity at constant pressure; settings: 101.33 kPa, Liquid, DSC

CC(C)O [propan-2-ol] + Cn1cc[n+](CCC[N+](C)(C)C)c1.N#C[N-]C#N.N#C[N-]C#N
[1]
Settings	mass density [kg/m3]	viscosity [mPa·s]
283.15 K	793.67	3.352
288.15 K	789.58	2.843
293.15 K	785.44	2.423
298.15 K	781.24	2.08
303.15 K	776.97	1.792
308.15 K	772.62	1.554
313.15 K	768.18	1.352
318.15 K	763.65	1.183
323.15 K	759.01	1.039
328.15 K	754.26	0.918
333.15 K	749.39	0.813

Cn1cc[n+](CCC[N+](C)(C)C)c1.N#C[N-]C#N.N#C[N-]C#N
Settings	mass density, [2] [kg/m3]	molar heat capacity at constant pressure, [3] [J/K/mol]	viscosity, [2] [mPa·s]
283.15 K	1162.82	–	4998
288.15 K	1159.76	–	2736
293.15 K	1156.74	–	1608
298.15 K	1153.73	519.44	1007
303.15 K	1150.76	521.65	662.9
308.15 K	1147.8	523.85	455.4
313.15 K	1144.89	526.06	324.6
318.15 K	1142	527.95	239.7
323.15 K	1139.11	530.48	181.2
328.15 K	1136.24	532.69	141.1
333.15 K	1133.4	535.21	111.9
338.15 K	–	537.1	–
343.15 K	–	539.62	–
348.15 K	–	541.83	–
353.15 K	–	543.72	–
358.15 K	–	546.25	–
363.15 K	–	548.14	–
368.15 K	–	550.66	–
373.15 K	–	553.19	–
378.15 K	–	555.39	–
383.15 K	–	557.92	–
388.15 K	–	560.12	–
393.15 K	–	562.33	–
398.15 K	–	564.85	–
403.15 K	–	567.06	–
408.15 K	–	569.27	–
413.15 K	–	571.79	–
418.15 K	–	574.32	–
423.15 K	–	576.21	–

CC(C)O [propan-2-ol]
[2]
Settings	mass density [kg/m3]	viscosity [mPa·s]
283.15 K	793.67	3.352
288.15 K	789.58	2.843
293.15 K	785.44	2.423
298.15 K	781.24	2.08
303.15 K	776.97	1.792
308.15 K	772.62	1.554
313.15 K	768.18	1.352
318.15 K	763.65	1.183
323.15 K	759.01	1.039
328.15 K	754.26	0.918
333.15 K	749.39	0.813
